The values below are quoted from earlier work in patent publication US20060019984A1, “Treatment of diseases with alpha-7nACh receptor full agonists” (Pfizer Inc, priority 2003, published 2006).

One series addresses α7 nAChR (Homo sapiens, UniProt P36544). The note with it: general statement, no method or value given.
For the next series, the target named is T1, 5HT3R (Homo sapiens, UniProt P46098).
T1 sequence (P46098 24-478): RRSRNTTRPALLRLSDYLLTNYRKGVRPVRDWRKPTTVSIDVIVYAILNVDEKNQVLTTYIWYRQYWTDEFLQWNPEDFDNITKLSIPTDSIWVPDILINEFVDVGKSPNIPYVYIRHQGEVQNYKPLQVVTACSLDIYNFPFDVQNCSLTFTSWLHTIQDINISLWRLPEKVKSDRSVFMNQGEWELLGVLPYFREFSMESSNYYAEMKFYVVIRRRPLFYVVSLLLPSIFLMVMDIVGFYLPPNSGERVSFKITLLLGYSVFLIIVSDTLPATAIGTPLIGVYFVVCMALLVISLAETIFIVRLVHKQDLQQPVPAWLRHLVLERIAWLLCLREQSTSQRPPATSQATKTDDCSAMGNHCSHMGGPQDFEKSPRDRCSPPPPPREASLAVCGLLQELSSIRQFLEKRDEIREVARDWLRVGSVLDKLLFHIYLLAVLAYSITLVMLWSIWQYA
The note with it: general statement, no method or value given.

Sequence of α7 nAChR (P36544 23-502): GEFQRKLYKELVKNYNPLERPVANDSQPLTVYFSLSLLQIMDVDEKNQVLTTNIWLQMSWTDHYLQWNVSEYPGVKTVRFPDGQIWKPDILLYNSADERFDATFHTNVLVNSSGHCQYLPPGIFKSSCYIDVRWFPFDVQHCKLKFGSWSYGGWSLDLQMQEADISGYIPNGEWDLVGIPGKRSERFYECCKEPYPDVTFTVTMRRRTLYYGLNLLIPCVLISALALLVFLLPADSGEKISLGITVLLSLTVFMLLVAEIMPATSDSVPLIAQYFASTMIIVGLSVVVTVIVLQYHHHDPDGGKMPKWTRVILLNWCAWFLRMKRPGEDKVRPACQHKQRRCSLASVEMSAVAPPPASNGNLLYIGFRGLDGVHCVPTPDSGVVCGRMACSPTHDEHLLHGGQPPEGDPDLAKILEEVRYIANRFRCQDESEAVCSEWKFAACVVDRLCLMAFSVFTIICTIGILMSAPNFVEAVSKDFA

Regarding `Cc1nccn1CC1CCc2c(c3ccccc3n2C)C1=O` (centres unmarked) [Ondansetron], the “activity at the α7 nAChR” value at α7 nAChR was “little activity”.
Consider `COc1ccc(/C=C2\CCCN=C2c2cccnc2)c(OC)c1` [GTS-21], for which, at 5HT3R, the “activity at the 5HT3R” value is recorded as “little activity”.
